Test results: US20050119321A1, “2-substituted-1,3-thiazole compounds” (priority 2002, published 2005)

melting point | SMILES
224 to 227 °C (dec.) | COc1ccc(CCC(=O)Nc2ncc([N+](=O)[O-])s2)cc1 [Example 5, 3-(4-Methoxyphenyl)-N-(5-nitro-1,3-thiazol-2-yl)propanamide]
176 to 177 °C | COc1ccc(CCCC(=O)Nc2ncc([N+](=O)[O-])s2)cc1 [Example 6, 4-(4-Methoxyphenyl)-N-(5-nitro-1,3-thiazol-2-yl)butanamide]
180 °C (dec.) | COc1ccc(Nc2nc(N)c(C(C)=O)s2)cc1 [Example 3, 1-{4-Amino-2-[(4-methoxyphenyl)amino]-1,3-thiazol-5-yl}ethanone]
